Test results published in paper PMC6738921, “Polyamine biosynthesis in Xenopus laevis: the xlAZIN2/xlODC2 gene encodes a lysine/ornithine decarboxylase” (PLoS ONE, 2019).
Where two headings read alike, the source gives them in different places.

Key:
Conditions in all cases: anti-Flag purified enzyme, less than 10% of activity recovered on purification, assay buffer: 0.1 mM pyridoxal phosphate, 1 mM dithiothreitol, 37°C
[1] = target: T1, xlODC1 (Xenopus laevis, UniProt P27120); assay: decarboxylase activity, Michaelis-Menten fit; type: biochemical
T1 construct: gene odc1-a
T1 sequence (P27120 1-460): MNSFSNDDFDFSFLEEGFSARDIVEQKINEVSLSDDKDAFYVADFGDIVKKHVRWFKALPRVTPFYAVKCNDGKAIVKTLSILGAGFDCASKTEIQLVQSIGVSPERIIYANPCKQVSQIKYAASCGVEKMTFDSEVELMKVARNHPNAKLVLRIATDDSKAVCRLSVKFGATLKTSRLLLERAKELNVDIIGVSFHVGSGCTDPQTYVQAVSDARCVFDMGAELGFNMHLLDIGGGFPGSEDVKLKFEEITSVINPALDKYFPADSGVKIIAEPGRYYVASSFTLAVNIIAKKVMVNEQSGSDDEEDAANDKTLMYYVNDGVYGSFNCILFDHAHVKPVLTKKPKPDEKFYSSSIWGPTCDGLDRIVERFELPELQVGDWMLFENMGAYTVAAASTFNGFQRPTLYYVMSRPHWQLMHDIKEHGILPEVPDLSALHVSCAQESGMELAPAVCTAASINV

[2] = substrate: NCCC[C@H](N)C(=O)O; assay: purified protein
[3] = substrate: NCCCC[C@H](N)C(=O)O; assay: decarboxylase activity, Michaelis-Menten fit; type: biochemical, Xenopus laevis

Work on `NCCCC[C@H](N)C(=O)O` [L-lysine] yielded a Km ([1]; unit inferred, mM from, read-out: Km^Lys) of 34.9 ± 6.1 mM.

Work on `NCCC[C@H](N)C(=O)O` [L-ornithine] yielded a Km ([1]; read-out: Km^Orn) of 0.103 ± 0.027 mM.

B1: xlAZIN2 (xlODC2, xlLDC, xlLODC) (Xenopus laevis) (protein)
chain: MQGYIQESDFNLVEEGFLARDLMEEIINEVSQTEDRDAFFVADLGDVVRKHLRFLKALPRVKPFYAVKCNSSKGVVKILAELGAGFDCASKTEIELVQDVGVAPERIIYANPCKQISQIKYAAKNGVQMMTFDNEVELSKVSRSHPNARMVLRIATDDSKSSARLSVKFGAPLKSCRRLLEMAKNLSVDVIGVSFHVGSGCTDSKAYTQAISDARLVFEMASEFGYKMWLLDIGGGFPGTEDSKIRFEEIAGVINPALDMYFPESSDVQIIAEPGRYYVASAFSLAVNVIAKKEVEHSVSDDEENESSKSIMYYVNDGVYGSFNCLVFDHAHPKPILHKKPSPDQPLYTSSLWGPTCDGLDQIAERVQLPELHVGDWLLFENMGAYTIAASSNFNGFQQSPVHYAMPRAAWKAVQLLQRGLQQTEEKENVCTPMSCGWEISDSLCFTRTFAATSII
B1 showed a Km [2] of 3.08 ± 0.81 mM and a Km [3] of 0.807 ± 0.102 mM.
